Laboratory results reported in patent US9642895B2, “Peptides for enhancing transdermal delivery” (3M INNOVATIVE PROPERTIES COMPANY, priority 2013, dated 2017).

What was measured:
human cadaver skin [1] = experiment: Phage display library selection for skin penetration using tape stripping; type: in vitro ADME; settings: phage-displayed peptide; phages recovered from tape strips 21-24 and remaining skin after 4 rounds of selection; 57 plaques sequenced
Experimental: (§1) Human cadaver skin was stored frozen. Prior to using, the frozen sections were placed in PBS and warmed to room temperature. The phage libraries or synthesized peptide sequences were applied to the stratum corneum side of the skin sample.
A tube containing LB medium (2 mL) and tetracycline (at a concentration of 20 μg/mL) was inoculated with E. coli ER2738 cells and then incubated overnight at 37° C. with shaking (200 rpm). An aliquot (100 microliter) was added to 20 mL of fresh LB medium containing 20 μg/mL of tetracycline. The culture was incubated at 37° C. with shaking (200 rpm) of the flask and the cells were grown to the early-log phase (OD600=0.5). Next, the phage sample was added and the culture was maintained for 4 hours at 37° C. with shaking of the flask.
E. coli ER2738 cells were removed from the phage amplified culture sample by centrifugation at 8000 rpm for 10 minutes. The resulting supernatant solution was added to the PEG/NaCl Phage precipitating solution (at a concentration of […]) and then maintained at 4° C. for 2 hours. The resulting phage precipitate was recovered by centrifuging the sample (8000 rpm for 30 min), removing the supernatant, and re-suspending the phage pellet in 2 mL of Tris-buffered saline (Tris buffered saline reagent prepared as 50 mM Tris-HCl in 150 mM NaCl buffered saline, pH 7.5). The amplified phage product was stored at 4° C.
LB Broth Medium (5-10 mL) was inoculated with a single colony of E. coli ER2738 and incubated with shaking (200 rpm) at 37° C. until the cells reached the early-log growth phase (OD600=0.5). The culture medium was then dispensed into multiple microfuge tubes (200 microliters per microfuge tube with one tube prepared for each phage dilution). Ten fold serial dilutions of amplified phage product in LB broth medium were prepared and a 10 microliter aliquot from each dilution was added to a separate microfuge tube containing culture medium. Each tube was vortexed and incubated at room temperature for 1-5 minutes.
The contents of each microfuge tube were transferred to a corresponding culture tube containing 3mL of soft agar maintained at 45° C. Each culture tube was then vortexed and the soft agar was poured onto a corresponding pre-warmed (37° C.) LB/IPTG/X-gal\tetraycline Petri plate. The resulting plates were gently tilted and rotated in order to evenly spread the soft agar on the plates. The plates were cooled for five minutes, inverted, and then incubated overnight at 37° C. Plates having approximately 100 plaques were counted providing an adjustment for the dilution factor. Single plaque phages on the plates were selected and further processed for DNA sequencing.
(§2) E. coli ER2738 cell culture (800 microliters of an early-log phase prepared as described above) was added to each well of a 96 deep well plate (each well having a 2 mL volume). Single plaque phages were randomly selected from Petri plates prepared as described in the phage titration procedure. A sterilized toothpick was used to remove a plaque from the Petri plate and transfer it to a well in the 96 well plate. The infected E. coli ER2738 cells were incubated for 4 hours at 37° C. with shaking (300 rpm). The liquid cultures were then centrifuged (4000 rpm for 60 min at 4° C.) and an aliquot of the resulting phage supernatant (10 microliters) from each well was sequenced for DNA using the rolling circle amplification method. The DNA sequencing was conducted at MCLAB (South San Francisco, Calif.).
Each phage display library (200 microliters in PBS) was applied to a 1 cm^2 section of human cadaver skin using a PIPETMAN Classic pipet (Gilson Inc., Middleton, Wis.). Adhesive tape was used to form a square frame that defined the application site. After 1 hour, the application site was washed with PBS to remove phages remaining on the skin surface. Tape stripping of the skin sample was accomplished using Scotch® box tape (3M Company, Maplewood, Minn.). […]

Hairless guinea pigs = experiment: Phage display library selection for skin penetration, in vivo hairless guinea pig procedure; settings: phage-displayed peptide; phages recovered from blood 1 hour after loading on back skin; 48 plaques sequenced
Experimental: as §2
Hairless guinea pigs (200 gram females from Charles River Laboratory, Wilmington, Mass.) were anesthetized in a chamber using 3-5% isoflurane in oxygen or air, and maintained at 1.5-3% isoflurane with a co-axial breathing device (COAX-3 obtained from Viking Medical, Medford Lakes, N.J.). Each animal was placed in lateral recumbency on a thermostatically controlled surface with its nose and mouth inside the anesthetic face mask for the duration of the experiment. During the procedure, the animal was monitored for respiration rate and the level of anesthesia was adjusted as required. The section of the back used for loading a phage library was wiped with a 70% isopropanol in water solution.
A phage display library containing about 10^11 phage particles in 200 microliters of PBS was loaded onto a 1 cm^2 section of skin on the back of the animal using a PIPETMAN Classic pipet. In order to both control the humidity and reduce contamination at the application site, a Hill Top Chamber® (Hill Top Research, St. Petersburg, Fla.) was placed over the application site and attached with adhesive. After 1 hour, 10 mL of blood was bled from the heart. The blood was immediately transferred to a vial containing heparin (1000 USP units per mL). The sample of blood (10 mL) was mixed with 50 mL of E. coli ER2738 cells in LB broth medium (early log phase, OD600=0.5) and then added to 300 mL of soft agar. Equal portions of soft agar containing blood and ER2738 (about 7 mL per plate) were added to fifty LB/IPTG/X-gal/tetracycline Petri plates. The plates were incubated overnight at 37° C. The resulting single plaque phages were randomly picked from the agar plate and processed for phage DNA sequencing using the procedure described above. DNA sequences were successfully obtained from 48 of the 96 isolated phage plaques.

human cadaver skin [2] = experiment: In vitro skin penetration enhancement of GFP, tape stripping; type: in vitro ADME; settings: 0.1 mg peptide with GFP 2.55 mg/mL in PBS; 2 hours at room temperature; 20 tape strips; control without peptide reached tape strip 6
Experimental: as §1
An in vitro assay to test for skin penetration enhancement was conducted using human cadaver skin. Two test samples (A and B) and a control sample were prepared. Test sample A contained GFP (at a concentration of 2.55 mg/mL), 0.1 mg of the peptide ACLDNTFRAC (Sequence ID No: 6, Table 2), and PBS (50 microliters). Test sample B contained GFP (at a concentration of 2.55 mg/mL), 0.1 mg of the peptide SHSACLDNTFRACGGGS (Sequence ID No: 14, Table 3), and PBS (50 microliters). The control sample contained GFP (at a concentration of 2.55 mg/mL) and PBS (100 microliters). Each sample was applied to a separate 1 cm^2 section of human cadaver skin using a PIPETMAN classic pipet. Adhesive tape was used to form a square frame that defined each application site. The treated skin samples were covered, maintained at room temperature for 2 hours, and then washed with deionized water for 5 minutes to remove any GFP remaining on the skin surface. Tape stripping of each skin application site was accomplished using Scotch® box tape. […]

hairless guinea pig skin [3] = experiment: In vitro skin penetration enhancement of FITC, tape stripping; type: in vitro ADME; settings: peptide 1 mg/mL with FITC sodium salt 10 mg/mL in PBS; 1 hour at room temperature; UV 340 nm; spot indicates penetration of FITC to the 20th tape strip
Experimental: An in vitro assay to test for skin penetration enhancement was conducted using hairless guinea pig skin. A full skin sample from the back region of the animal was used. An individual test sample for each peptide in Table 3 was prepared containing the peptide (at a concentration of 1 mg/mL), FITC sodium salt (at a concentration of 10 mg/mL), and PBS (200 microliters). The control sample was prepared containing only FITC sodium salt (at a concentration of 10 mg/mL), and PBS (200 microliters). Each peptide test sample was applied to a separate 1 cm^2 section on the stratum corneum side of the guinea pig skin using a PIPETMAN Classic pipet. In the same manner, the control sample was applied. The treated skin samples were covered, maintained at room temperature for 1 hour and then washed with deionized water for 5 minutes to remove any FITC remaining on the skin surface. Tape stripping of each skin application site was accomplished using Scotch® box tape. The tape was placed on the skin so that it covered the entire surface of an individual application site (width of tape strip approximately 1.5 cm). For each tape stripping procedure, the tape was secured to the skin with three cycles (3 forward and 3 backward passes) of a 300 g hand held roller. Next the tape was grasped by hand at one end and quickly peeled from the skin surface using a single motion. The exact same procedure of tape stripping was repeated for a total of 20 tape stripping operations at each application site. The 20th tape strip for each sample was imaged for FITC using ultraviolet light at 340 nm. The presence of a fluorescent spot on the tape indicated penetration of FITC to the 20th tape strip.

hairless guinea pig skin [4] = experiment: In vitro penetration of FITC through full skin; type: in vitro ADME; settings: peptide 2.5 mg/mL with FITC sodium salt 0.05 mg/mL in PBS; 3 hours at room temperature then 4° C. overnight; UV 340 nm
Experimental: An in vitro assay to test for skin penetration enhancement was conducted using hairless guinea pig skin. A full skin sample from the back region of the animal was used. The test sample was prepared containing FITC sodium salt (at a concentration of 0.05 mg/mL), the peptide SHSACLDNTFRACG (Sequence ID No: 17) at a concentration of 2.5 mg/mL, and PBS (40 microliters). The control sample was prepared containing only FITC sodium salt (at a concentration of 0.05 mg/mL), and PBS (40 microliters). Each sample was applied to a separate 0.25 cm^2 section on the stratum corneum side of the guinea pig skin using a PIPETMAN Classic pipet. The treated skin samples were covered, maintained at room temperature for 3 hours and then at 4° C. overnight. The side of the skin sample opposite the application side was visually examined under ultraviolet light (340 nm). Visualization of a fluorescent spot on the side of the skin directly opposite from the application site was used to confirm penetration of FITC through the skin. […] For the control sample a fluorescent spot was not visualized on the side of the skin directly opposite from the application site.

| Substance | Frequency of Sequence in Plaques from Tape Stripping of Human Cadaver Skin Study (human cadaver skin [1]) [n/57] | Frequency of Sequence in Plaques from Hairless Guinea Pig Study (Hairless guinea pigs) [n/48] | Fluorescent Spot Visualized on Tape Strip #20 (hairless guinea pig skin [3]) | other results |
| --- | --- | --- | --- | --- |
| 1 (ACLPGVLGSC; Phage display library peptides) [compound 1] | 1 | 0 |  |  |
| 2 (ACSLPWDASC; Phage display library peptides) [compound 2] | 1 | 0 |  |  |
| 3 (ACDTPRLTHC; Phage display library peptides) [compound 3] | 2 | 0 |  |  |
| 4 (TWTQAWPWGWTW; Phage display library peptides) [compound 4] | 1 | 0 |  |  |
| 5 (AKSSWWGRAYWY; Phage display library peptides) [compound 5] | 1 | 0 |  |  |
| 6 (ACLDNTFRAC; Phage display library peptides) [compound 6] | 2 | 11 |  | deepest penetration of the green fluorescent signal of GFP in the skin sample (tape strip number) (human cadaver skin [2]): 14 |
| 7 (ASSTTLNTLAQ; Phage display library peptides) [compound 7] | 9 | 5 |  |  |
| 8 (ASSDIPLFTRY; Phage display library peptides) [compound 8] | 1 | 4 |  |  |
| 10 (SHSACSLPWDASCGGGS; Phage display library peptides) [compound 10] |  |  | yes |  |
| 12 (SHSTWTQAWPWGWTWGGGS; Phage display library peptides) [compound 12] |  |  | yes |  |
| 13 (SHSAKSSWWGRAYWYGGGS; Phage display library peptides) [compound 13] |  |  | yes |  |
| 14 (SHSACLDNTFRACGGGS; Phage display library peptides) [compound 14] |  |  | yes | deepest penetration of the green fluorescent signal of GFP in the skin sample (tape strip number) (human cadaver skin [2]): 20 |
| 15 (SHSASSTTLNTLAQWPA; Phage display library peptides) [compound 15] |  |  | yes |  |
| 16 (SHSASSDIPLFTRYGGGS; Phage display library peptides) [compound 16] |  |  | yes |  |
| 17 (SHSACLDNTFRACG; Phage display library peptides) [compound 17] |  |  |  | fluorescent spot on the side of the skin directly opposite from the application site (penetration of FITC through the skin) (hairless guinea pig skin [4]): a fluorescent spot was visualized |
